This assay deals with β-galactosidase (Escherichia coli, UniProt P00722). Briefly: Kinetics of β-galactosidase with p-NPBG, with and without diethanolamine. It is filed as biochemical. The following applies: for Km: read-out: Michaelis constant (Km) of β-galactosidase for p-NPBG. Here is the method:
β-galactosidase has a pH optimum of 7.4 for p-nitrophenyl-β-D-galactoside (p-NPBG), although in a single assay format using normal substrate concentrations (up to approximately 5 mM), the pH can be raised to 8.6 with only a slight loss (approximately 20%) of activity. […] We have also found, however, that by increasing the concentration of p-NPBG at pH 8.6, even in the presence of about 1M diethanolamine, substantial activity of β-galactosidase can be achieved. Substantial activity of β-galactosidase is also obtained if the same reaction medium is used but with p-NPBG replaced by o-NPBG.

Like-named read-outs stand apart in the source and are kept apart here.

Chain of β-galactosidase (P00722 2-1024): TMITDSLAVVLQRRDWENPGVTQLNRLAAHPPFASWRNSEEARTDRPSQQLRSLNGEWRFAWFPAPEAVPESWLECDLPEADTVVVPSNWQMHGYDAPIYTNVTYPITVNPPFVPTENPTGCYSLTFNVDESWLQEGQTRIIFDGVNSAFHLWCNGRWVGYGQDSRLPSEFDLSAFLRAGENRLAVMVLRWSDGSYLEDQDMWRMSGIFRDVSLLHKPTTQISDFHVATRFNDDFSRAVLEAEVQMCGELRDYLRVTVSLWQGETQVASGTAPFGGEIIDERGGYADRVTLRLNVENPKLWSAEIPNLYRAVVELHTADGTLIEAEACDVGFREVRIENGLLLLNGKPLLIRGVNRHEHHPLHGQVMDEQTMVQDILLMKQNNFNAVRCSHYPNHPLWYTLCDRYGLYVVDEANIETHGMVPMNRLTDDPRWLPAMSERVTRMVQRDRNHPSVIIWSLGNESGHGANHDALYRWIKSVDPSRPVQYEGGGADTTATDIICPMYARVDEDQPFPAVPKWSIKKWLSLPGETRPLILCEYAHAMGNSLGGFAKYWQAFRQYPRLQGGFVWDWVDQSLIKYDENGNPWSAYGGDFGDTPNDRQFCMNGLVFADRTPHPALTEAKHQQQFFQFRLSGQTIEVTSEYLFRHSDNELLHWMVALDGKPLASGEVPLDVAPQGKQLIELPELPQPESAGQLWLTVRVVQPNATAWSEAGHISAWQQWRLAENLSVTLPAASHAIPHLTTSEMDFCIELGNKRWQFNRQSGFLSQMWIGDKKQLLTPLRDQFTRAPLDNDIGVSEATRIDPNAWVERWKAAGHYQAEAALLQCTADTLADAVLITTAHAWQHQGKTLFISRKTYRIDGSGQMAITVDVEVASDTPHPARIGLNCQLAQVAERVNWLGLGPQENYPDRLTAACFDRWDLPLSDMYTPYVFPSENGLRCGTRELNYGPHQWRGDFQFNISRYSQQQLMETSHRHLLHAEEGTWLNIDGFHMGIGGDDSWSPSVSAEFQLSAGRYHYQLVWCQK

With `OCCNCCO` [diethanolamine], the “activity of β-galactosidase (inhibition by diethanolamine)” value (about 1M diethanolamine, pH 8.6, p-NPBG at normal substrate concentrations (up to approximately 5 mM)) is listed as “almost totally abolished”.

For `O=[N+]([O-])c1ccc(O[C@@H]2O[C@H](CO)[C@H](O)[C@H](O)[C@H]2O)cc1` [p-NPBG, p-nitrophenyl-β-D-galactoside], the Km (as a rule, the substrate concentration at which the rate is half of its maximum) came out at 21 mM (in the presence of 1M diethanolamine (competitive inhibition)) and 0.066 mM (without diethanolamine).

(Values after patent US5108896A, “Simultaneous immunoassay of two analytes using dual enzyme labelled antibodies” (priority 1986, dated 1992).)
